Source: US9067974B2, “Polymyxin derivatives and uses thereof” (priority 2006, dated 2015)

Columns and labels:
E. coli IH3080 = assay: Sensitization to rifampin: well diffusion growth inhibition on LB plates containing rifampin; format: cell-based, Escherichia coli
Description: (§1) From an overnight-grown culture of IH3080 on LB agar, a suspension of approx. 10^8 cells/ml was prepared in 0.9% NaCl. Aliquots of this suspension were then pipetted on the agar plates and the plates were gently shaken to spread the suspension evenly on the entire surface of the plate. Thereafter, the unabsorbed part of the suspension was removed by using a Pasteur pipette. After the surface had dried, small wells (diameter, 2 mm) were drilled on the plates (five wells per plate) by using a sterile sharp-edged narrow metal tube, single-use pipette tip, and vacuum suction. […] Controls included 0.9% NaCl solution without the compound to be tested. The plates were then incubated for 18 h at 37° C. whereafter the diameters of growth inhibition zones around each well were measured; the diameter of the well itself was not reduced. Finally, the diameters were converted to surface areas of growth inhibition (in square mm).

E. coli IH3080 (K1:O18) = assay: Well diffusion growth inhibition on LB agar plates (direct antibacterial activity); format: cell-based, Escherichia coli
Description: Peptides synthesized in Example 1, all carrying at least two (2) but not more than three (3) positive charges, were studied for their ability to inhibit the growth of E. coli. This was tested employing LB agar (LB Agar Lennox, Difco, BD, Sparks, Md., U.S.A) plates. The indicator organism E. coli IH3080 (K1:O18) was an encapsulated strain originally isolated from a neonate suffering from meningitis (Vaara et al. 1984) and obtained from National Public Health Institute, Helsinki, Finland.
as §1

[1] = 4 μg of compound, rifampin 0 μg/ml
[2] = 4 μg of compound, rifampin 0.1 μg/ml
[3] = 4 μg of compound, rifampin 1.0 μg/ml

Compound: CO[C@H]1/C=C/O[C@@]2(C)Oc3c(C)c(O)c4c(O)c(c(/C=N/N5CCN(C)CC5)c(O)c4c3C2=O)NC(=O)/C(C)=C\C=C\[C@H](C)[C@H](O)[C@@H](C)[C@@H](O)[C@@H](C)[C@H](OC(C)=O)[C@@H]1C [rifampin, reference compound]
- Concentration of rifampin needed for the inhibitory effect in the absence of the compounds tested (E. coli IH3080; LB plates): 10 µg/mL

Compound: Deacylcolistin [reference compound]
- Antibacterial activity (growth inhibition area around a well) (E. coli IH3080 (K1:O18); 4 μg of compound per well): 79 square millimeters
- Antibacterial activity (growth inhibition area around a well) (E. coli IH3080 (K1:O18); 10 μg of compound per well): 95 square millimeters
- Antibacterial activity in the presence of rifampin (growth inhibition area around a well) (E. coli IH3080; [1]): 79 square millimeters
- Antibacterial activity in the presence of rifampin (growth inhibition area around a well) (E. coli IH3080; [2]): 87 square millimeters
- Antibacterial activity in the presence of rifampin (growth inhibition area around a well) (E. coli IH3080; [3]): 127 square millimeters

Compound: Deacylpolymyxin B [reference compound]
- Antibacterial activity (growth inhibition area around a well) (E. coli IH3080 (K1:O18); 4 μg of compound per well): 57 square millimeters
- Antibacterial activity (growth inhibition area around a well) (E. coli IH3080 (K1:O18); 10 μg of compound per well): 113 square millimeters
- Antibacterial activity in the presence of rifampin (growth inhibition area around a well) (E. coli IH3080; [1]): 57 square millimeters
- Antibacterial activity in the presence of rifampin (growth inhibition area around a well) (E. coli IH3080; [2]): 79 square millimeters
- Antibacterial activity in the presence of rifampin (growth inhibition area around a well) (E. coli IH3080; [3]): 127 square millimeters

Compound: MHA-Abu-Thr-Abu-cy[Dab-Dab-DPhe-Leu-Dab-Dab-Thr-] [NAB 707]
- Antibacterial activity (growth inhibition area around a well) (E. coli IH3080 (K1:O18); 4 μg of compound per well): 5 square millimeters
- Antibacterial activity (growth inhibition area around a well) (E. coli IH3080 (K1:O18); 10 μg of compound per well): 7 square millimeters
- Antibacterial activity in the presence of rifampin (growth inhibition area around a well) (E. coli IH3080; [1]): 5 square millimeters
- Antibacterial activity in the presence of rifampin (growth inhibition area around a well) (E. coli IH3080; [2]): 87 square millimeters
- Antibacterial activity in the presence of rifampin (growth inhibition area around a well) (E. coli IH3080; [3]): 113 square millimeters

Compound: MHA-Dab-Thr-Dab-cy[Dab-Dab-DPhe-Leu-Abu-Abu-Thr-] [NAB 721]
- Antibacterial activity (growth inhibition area around a well) (E. coli IH3080 (K1:O18); 4 μg of compound per well): 0 square millimeters
- Antibacterial activity (growth inhibition area around a well) (E. coli IH3080 (K1:O18); 10 μg of compound per well): 0 square millimeters
- Antibacterial activity in the presence of rifampin (growth inhibition area around a well) (E. coli IH3080; [1]): 0 square millimeters
- Antibacterial activity in the presence of rifampin (growth inhibition area around a well) (E. coli IH3080; [2]): 13 square millimeters
- Antibacterial activity in the presence of rifampin (growth inhibition area around a well) (E. coli IH3080; [3]): 28 square millimeters

Compound: MHA-Thr-Abu-cy[Dab-Dab-DPhe-Leu-Dab-Dab-Thr-] [NAB 706]
- Antibacterial activity (growth inhibition area around a well) (E. coli IH3080 (K1:O18); 4 μg of compound per well): 5 square millimeters
- Antibacterial activity (growth inhibition area around a well) (E. coli IH3080 (K1:O18); 10 μg of compound per well): 7 square millimeters
- Antibacterial activity in the presence of rifampin (growth inhibition area around a well) (E. coli IH3080; [1]): 5 square millimeters
- Antibacterial activity in the presence of rifampin (growth inhibition area around a well) (E. coli IH3080; [2]): 79 square millimeters
- Antibacterial activity in the presence of rifampin (growth inhibition area around a well) (E. coli IH3080; [3]): 133 square millimeters

Compound: OA-Abu-cy[Dab-Dab-DPhe-Leu-Dab-Dab-Thr-] [NAB 713]
- Antibacterial activity (growth inhibition area around a well) (E. coli IH3080 (K1:O18); 4 μg of compound per well): 0 square millimeters
- Antibacterial activity (growth inhibition area around a well) (E. coli IH3080 (K1:O18); 10 μg of compound per well): 0 square millimeters
- Antibacterial activity in the presence of rifampin (growth inhibition area around a well) (E. coli IH3080; [1]): 0 square millimeters
- Antibacterial activity in the presence of rifampin (growth inhibition area around a well) (E. coli IH3080; [2]): 20 square millimeters
- Antibacterial activity in the presence of rifampin (growth inhibition area around a well) (E. coli IH3080; [3]): 38 square millimeters

Compound: OA-DAla-DAla-cy[Dab-Dab-DPhe-Leu-Dab-Dab-Thr-] [NAB 733]
- Antibacterial activity (growth inhibition area around a well) (E. coli IH3080 (K1:O18); 4 μg of compound per well): 0 square millimeters
- Antibacterial activity (growth inhibition area around a well) (E. coli IH3080 (K1:O18); 10 μg of compound per well): 0 square millimeters
- Antibacterial activity in the presence of rifampin (growth inhibition area around a well) (E. coli IH3080; [1]): 0 square millimeters
- Antibacterial activity in the presence of rifampin (growth inhibition area around a well) (E. coli IH3080; [2]): 95 square millimeters
- Antibacterial activity in the presence of rifampin (growth inhibition area around a well) (E. coli IH3080; [3]): 113 square millimeters

Compound: OA-Thr-Abu-cy[Dab-Abu-DPhe-Leu-Dab-Dab-Thr-] [NAB 710]
- Antibacterial activity (growth inhibition area around a well) (E. coli IH3080 (K1:O18); 4 μg of compound per well): 0 square millimeters
- Antibacterial activity (growth inhibition area around a well) (E. coli IH3080 (K1:O18); 10 μg of compound per well): 7 square millimeters
- Antibacterial activity in the presence of rifampin (growth inhibition area around a well) (E. coli IH3080; [1]): 0 square millimeters
- Antibacterial activity in the presence of rifampin (growth inhibition area around a well) (E. coli IH3080; [2]): 7 square millimeters
- Antibacterial activity in the presence of rifampin (growth inhibition area around a well) (E. coli IH3080; [3]): 13 square millimeters

Compound: OA-Thr-Abu-cy[Dab-Dab-DPhe-Leu-Dab-Abu-Thr-] [NAB 709]
- Antibacterial activity (growth inhibition area around a well) (E. coli IH3080 (K1:O18); 4 μg of compound per well): 0 square millimeters
- Antibacterial activity (growth inhibition area around a well) (E. coli IH3080 (K1:O18); 10 μg of compound per well): 0 square millimeters
- Antibacterial activity in the presence of rifampin (growth inhibition area around a well) (E. coli IH3080; [1]): 0 square millimeters
- Antibacterial activity in the presence of rifampin (growth inhibition area around a well) (E. coli IH3080; [2]): 0 square millimeters
- Antibacterial activity in the presence of rifampin (growth inhibition area around a well) (E. coli IH3080; [3]): 13 square millimeters

Compound: OA-Thr-Abu-cy[Dab-Lys-DPhe-Leu-Dab-Dab-Thr-] [NAB 731]
- Antibacterial activity (growth inhibition area around a well) (E. coli IH3080 (K1:O18); 4 μg of compound per well): 0 square millimeters
- Antibacterial activity (growth inhibition area around a well) (E. coli IH3080 (K1:O18); 10 μg of compound per well): 0 square millimeters
- Antibacterial activity in the presence of rifampin (growth inhibition area around a well) (E. coli IH3080; [1]): 0 square millimeters
- Antibacterial activity in the presence of rifampin (growth inhibition area around a well) (E. coli IH3080; [2]): 0 square millimeters
- Antibacterial activity in the presence of rifampin (growth inhibition area around a well) (E. coli IH3080; [3]): 5 square millimeters
- Antibacterial activity in the presence of rifampin (growth inhibition area around a well) (E. coli IH3080; 10 μg of compound, rifampin 1.0 μg/ml): 22 square millimeters

Compound: OA-Thr-Dab-cy[Dab-Abu-DPhe-Leu-Dab-Dab-Thr-] [NAB 715]
- Antibacterial activity (growth inhibition area around a well) (E. coli IH3080 (K1:O18); 4 μg of compound per well): 0 square millimeters
- Antibacterial activity (growth inhibition area around a well) (E. coli IH3080 (K1:O18); 10 μg of compound per well): 0 square millimeters
- Antibacterial activity in the presence of rifampin (growth inhibition area around a well) (E. coli IH3080; [1]): 0 square millimeters
- Antibacterial activity in the presence of rifampin (growth inhibition area around a well) (E. coli IH3080; [2]): 0 square millimeters
- Antibacterial activity in the presence of rifampin (growth inhibition area around a well) (E. coli IH3080; [3]): 33 square millimeters

Compound: Polymyxin B heptapeptide [reference compound]
- Antibacterial activity (growth inhibition area around a well) (E. coli IH3080 (K1:O18); 4 μg of compound per well): 0 square millimeters
- Antibacterial activity (growth inhibition area around a well) (E. coli IH3080 (K1:O18); 10 μg of compound per well): 0 square millimeters
- Antibacterial activity in the presence of rifampin (growth inhibition area around a well) (E. coli IH3080; [1]): 0 square millimeters
- Antibacterial activity in the presence of rifampin (growth inhibition area around a well) (E. coli IH3080; [2]): 0 square millimeters
- Antibacterial activity in the presence of rifampin (growth inhibition area around a well) (E. coli IH3080; [3]): 38 square millimeters
